The source of these data is patent US10351547B2, “Somatostatin modulators and uses thereof” (priority 2016, dated 2019).

Each structure is given as a SMILES string. Read-outs that look alike come from different tables or passages of the source. A value given as a limit tells only on which side of the number the result lay.

In this test the target is human SSTR2 (Homo sapiens (Human), UniProt P30874). The experiment in a line: Human SSTR2 intracellular cAMP functional assay for agonists (HTRF). Format: cell-based. The protocol: Functional Assay for SSTR2 Agonists
General overview: All five SSTR subtypes are Gi coupled G-protein coupled receptors (GPCRs) that lead to decreases in intracellular cyclic AMP (cAMP) when activated by an agonist. […] Human SSTR2 intracellular cAMP assay is described below. The human SSTR1, 3, 4 and 5 assays follow the same protocol of SSTR2.
The cells are cultured at 37° C., 5% CO2 and 95% humidity. […] The cells are incubated for 20 minutes at 37° C. […] The cells are treated with 50 μL of lysis buffer (HRTF cAMP kit, Cisbio). […] The time-resolved fluorescent signal is read with a Tecan M1000Pro multiplate reader. The intracellular cAMP concentrations are calculated by regression to a standard curve and are plotted vs. the concentration of the compounds of the invention and the EC50 of the compounds are calculated using standard methods. All data manipulations are in GraphPad Prism v6.
On the technique in general: Time-resolved FRET reads energy transfer from a long-lived donor to a nearby acceptor.

Setting [1] is: CHO-K1 cells stably expressing human SSTR2, NKH477-stimulated cAMP, read-out: EC50 (inhibition of cAMP activities via human SST2R).

Sequence of human SSTR2 (P30874 whole entry): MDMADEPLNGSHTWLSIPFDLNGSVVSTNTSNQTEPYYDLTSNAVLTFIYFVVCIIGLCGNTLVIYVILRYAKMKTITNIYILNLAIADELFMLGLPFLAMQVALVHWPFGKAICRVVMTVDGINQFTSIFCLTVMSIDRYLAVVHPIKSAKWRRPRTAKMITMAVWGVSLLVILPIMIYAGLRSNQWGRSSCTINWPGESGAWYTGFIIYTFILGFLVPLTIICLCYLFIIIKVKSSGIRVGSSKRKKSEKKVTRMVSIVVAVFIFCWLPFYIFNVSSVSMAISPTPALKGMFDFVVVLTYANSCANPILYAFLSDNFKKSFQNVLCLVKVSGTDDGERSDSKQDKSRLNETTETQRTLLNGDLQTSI

Usually EC50 stands for the concentration giving half of the maximal effect. Turning to `Cc1cc(F)cc(-c2nnc3cc(Cl)c(-c4cccc5[nH]c(=O)[nH]c45)cc3c2N2CCC(N)CC2)c1` [1-9, 4-[4-(4-aminopiperidin-1-yl)-7-chloro-3-(3-fluoro-5-methylphenyl)cinnolin-6-yl]-2,3-dihydro-1H-1,3-benzodiazol-2-one], the EC50 lay in the range of 10 to 100 nM.
With `N#Cc1cccc(-c2cc3c(N4CCC(N)CC4)c(-c4cc(Cl)cc(Cl)c4)nnc3cc2Cl)c1O` [1-11, 3-[4-(4-aminopiperidin-1-yl)-7-chloro-3-(3,5-dichlorophenyl)cinnolin-6-yl]-2-hydroxybenzonitrile], under setting [1], the EC50 is < 10 nM.
Regarding `Cc1cc(Cl)cc(-c2nnc3cc(Cl)c(-c4cc(F)cc(C#N)c4O)cc3c2N2CCC(N)CC2)c1` [1-12, 3-[4-(4-aminopiperidin-1-yl)-7-chloro-3-(3-chloro-5-methylphenyl)cinnolin-6-yl]-5-fluoro-2-hydroxybenzonitrile], the EC50 under setting [1] is < 10 nM.
The same measure, in the same setting: under `Cc1cc(F)cc(-c2nnc3ccc(-c4cc(F)cc(C(N)=O)c4)cc3c2N2CCC(N)CC2)c1` [1-13, 3-[4-(4-aminopiperidin-1-yl)-3-(3-fluoro-5-methylphenyl)cinnolin-6-yl]-5-fluorobenzamide] stands < 10 nM; under `NC(=O)c1cc(F)cc(-c2ccc3nnc(-c4cc(F)cc(F)c4)c(N4CCC(N)CC4)c3c2)c1` [1-14, 3-[4-(4-aminopiperidin-1-yl)-3-(3,5-difluorophenyl)cinnolin-6-yl]-5-fluorobenzamide], < 10 nM.
Turning to `Cc1cc(F)cc(-c2ccc3nnc(-c4cc(F)cc(C(N)=O)c4)c(N4CCC(N)CC4)c3c2)c1` [1-15, 3-[4-(4-aminopiperidin-1-yl)-6-(3-fluoro-5-methylphenyl)cinnolin-3-yl]-5-fluorobenzamide], the EC50 is 10 to 100 nM.
Take `Cc1cc(F)cc(-c2nnc3ccc(-c4ccc5[nH]c(=O)[nH]c5c4)cc3c2N2CCC(N)CC2)c1` [1-16, 5-[4-(4-aminopiperidin-1-yl)-3-(3-fluoro-5-methylphenyl)cinnolin-6-yl]-2,3-dihydro-1H-1,3-benzodiazol-2-one]: the EC50 under setting [1] is < 10 nM.
As for `Cc1cc(F)cc(-c2nnc3ccc(-c4cccc(C#N)c4O)cc3c2N2CCC(N)CC2)c1` [1-17, 3-[4-(4-aminopiperidin-1-yl)-3-(3-fluoro-5-methylphenyl)cinnolin-6-yl]-2-hydroxybenzonitrile], the EC50 under setting [1] was < 10 nM.
Same read-out and setting: to `Cc1cc(Cl)cc(-c2nnc3ccc(-c4cccc(C#N)c4O)cc3c2N2CCC(N)CC2)c1` [1-18, 3-[4-(4-aminopiperidin-1-yl)-3-(3-chloro-5-methylphenyl)cinnolin-6-yl]-2-hydroxybenzonitrile] belongs < 10 nM; to `N#Cc1cccc(-c2ccc3nnc(-c4cc(F)cc(Cl)c4)c(N4CCC(N)CC4)c3c2)c1O` [1-19, 3-[4-(4-aminopiperidin-1-yl)-3-(3-chloro-5-fluorophenyl)cinnolin-6-yl]-2-hydroxybenzonitrile], < 10 nM.
In the case of `N#Cc1cccc(-c2ccc3nnc(-c4cc(F)cc(F)c4)c(N4CCC(N)CC4)c3c2)c1O` [1-20, 3-[4-(4-aminopiperidin-1-yl)-3-(3,5-difluorophenyl)cinnolin-6-yl]-2-hydroxybenzonitrile], the EC50 lay within 10 to 100 nM.
As to `N#Cc1cccc(-c2ccc3nnc(-c4cc(Cl)cc(Cl)c4)c(N4CCC(N)CC4)c3c2)c1O` [1-21, 3-[4-(4-aminopiperidin-1-yl)-3-(3,5-dichlorophenyl)cinnolin-6-yl]-2-hydroxybenzonitrile], the EC50 under setting [1] was < 10 nM.
Still for that read-out and setting: to `Cc1cc(Cl)cc(-c2nnc3ccc(-c4cc(F)cc(C#N)c4O)cc3c2N2CCC(N)CC2)c1` [1-22, 3-[4-(4-aminopiperidin-1-yl)-3-(3-chloro-5-methylphenyl)cinnolin-6-yl]-5-fluoro-2-hydroxybenzonitrile] belongs < 10 nM; to `Cc1cc(Cl)cc(-c2nnc3ccc(-c4cc(F)c5[nH]c(=O)[nH]c5c4)cc3c2N2CCC(N)CC2)c1` [1-23, 6-[4-(4-aminopiperidin-1-yl)-3-(3-chloro-5-methylphenyl)cinnolin-6-yl]-4-fluoro-2,3-dihydro-1H-1,3-benzodiazol-2-one], < 10 nM.
Still for that read-out and setting: to `Cc1cc(Cl)cc(-c2nnc3ccc(-c4cc(F)cc5[nH]c(=O)[nH]c45)cc3c2N2CCC(N)CC2)c1` [1-24, 4-[4-(4-aminopiperidin-1-yl)-3-(3-chloro-5-methylphenyl)cinnolin-6-yl]-6-fluoro-2,3-dihydro-1H-1,3-benzodiazol-2-one] belongs < 10 nM.
The same measure, in the same setting: under `Cc1cc(F)cc(-c2nnc3cc(Cl)c(-c4cc(F)cc(C(N)=O)c4)cc3c2N2CCC(NCCF)CC2)c1` [1-25, 3-[7-chloro-3-(3-fluoro-5-methylphenyl)-4-{4-[(2-fluoroethyl)amino]piperidin-1-yl}cinnolin-6-yl]-5-fluorobenzamide] stands < 10 nM; under `NC1CCN(c2c(-c3cc(Cl)cc(Cl)c3)nnc3ccc(-c4cc(F)c5[nH]c(=O)[nH]c5c4)cc23)CC1` [1-28, 6-[4-(4-aminopiperidin-1-yl)-3-(3,5-dichlorophenyl)cinnolin-6-yl]-4-fluoro-2,3-dihydro-1H-1,3-benzodiazol-2-one], < 10 nM; under `Cc1cc(Cl)cc(-c2nnc3ccc(-c4cccc(F)c4O)cc3c2N2CCC(N)CC2)c1` [1-29, 2-[4-(4-aminopiperidin-1-yl)-3-(3-chloro-5-methylphenyl)cinnolin-6-yl]-6-fluorophenol], < 10 nM.
Take `NC(=O)c1cc(F)cc(-c2ccc3nnc(-c4cc(Cl)cc(Cl)c4)c(N4CCC(N)CC4)c3c2)c1` [1-30, 3-[4-(4-aminopiperidin-1-yl)-3-(3,5-dichlorophenyl)cinnolin-6-yl]-5-fluorobenzamide]: the 50% effective concentration (EC50) under setting [1] is < 10 nM.
Same read-out and setting: under `NC(=O)c1cc(F)cc(-c2ccc3nnc(-c4cc(Cl)cc(Cl)c4)c(N4CCC(NC5COC5)CC4)c3c2)c1` [1-31, 3-[3-(3,5-dichlorophenyl)-4-{4-[(oxetan-3-yl)amino]piperidin-1-yl}cinnolin-6-yl]-5-fluorobenzamide] stands < 10 nM; under `NC(=O)c1cc(F)cc(-c2ccc3nnc(-c4cc(Cl)cc(Cl)c4)c(N4CCC(NCCC(F)(F)F)CC4)c3c2)c1` [1-32, 3-[3-(3,5-dichlorophenyl)-4-{4-[(3,3,3-trifluoropropyl)amino]piperidin-1-yl}cinnolin-6-yl]-5-fluorobenzamide], < 10 nM; under `NC(=O)c1cc(F)cc(-c2ccc3nnc(-c4cc(Cl)cc(Cl)c4)c(N4CCC(NCCF)CC4)c3c2)c1` [1-33, 3-[3-(3,5-dichlorophenyl)-4-{4-[(2-fluoroethyl)amino]piperidin-1-yl}cinnolin-6-yl]-5-fluorobenzamide], < 10 nM.
In the case of `NCC1CN(c2c(-c3cc(Cl)cc(Cl)c3)nnc3ccc(-c4cc(F)cc(C(N)=O)c4)cc23)C1` [1-34, 3-{4-[3-(aminomethyl)azetidin-1-yl]-3-(3,5-dichlorophenyl)cinnolin-6-yl}-5-fluorobenzamide], the EC50 under setting [1] was < 10 nM.
Same read-out and setting: to `Cc1cc(F)cc(-c2cnc3ccc(-c4cccc(C#N)c4O)cc3c2N2CCC(N)CC2)c1` [2-1, 3-[4-(4-aminopiperidin-1-yl)-3-(3-fluoro-5-methylphenyl)quinolin-6-yl]-2-hydroxybenzonitrile] belongs < 10 nM.
Still for that read-out and setting: under `N#Cc1cccc(-c2ccc3ncc(-c4cc(F)cc(F)c4)c(N4CCC(N)CC4)c3c2)c1O` [2-2, 3-[4-(4-amino-piperidin-1-yl)-3-(3,5-difluoro-phenyl)-quinolin-6-yl]-2-hydroxy-benzonitrile] stands < 10 nM; under `N#Cc1cccc(-c2ccc3ncc(-c4cc(F)cc(F)c4)c(N4CCC(N)CC4)c3c2)c1` [2-5, 3-[4-(4-aminopiperidin-1-yl)-3-(3,5-difluorophenyl)quinolin-6-yl]benzonitrile], < 10 nM; under `NC1CCN(c2c(-c3cc(F)cc(F)c3)cnc3ccc(-c4ccccc4O)cc23)CC1` [2-6, 2-[4-(4-aminopiperidin-1-yl)-3-(3,5-difluorophenyl)quinolin-6-yl]phenol], < 10 nM.
Consider `Cc1cc(F)cc(-c2cnc3ccc(-c4cccc(C(N)=O)n4)cc3c2N2CCC(N)CC2)c1` [2-7, 6-[4-(4-aminopiperidin-1-yl)-3-(3-fluoro-5-methylphenyl)quinolin-6-yl]pyridine-2-carboxamide], for which the EC50 under setting [1] was < 10 nM.
Still for that read-out and setting: under `Cc1cc(F)cc(-c2cnc3ccc(-c4cccc5[nH]c(=O)[nH]c45)cc3c2N2CCC(N)CC2)c1` [2-8, 4-[4-(4-aminopiperidin-1-yl)-3-(3-fluoro-5-methylphenyl)quinolin-6-yl]-2,3-dihydro-1H-1,3-benzodiazol-2-one] stands < 10 nM; under `Cc1cc(F)cc(-c2cnc3ccc(-c4ccc5[nH]c(=O)[nH]c5c4)cc3c2N2CCC(N)CC2)c1` [2-9, 5-[4-(4-aminopiperidin-1-yl)-3-(3-fluoro-5-methylphenyl)quinolin-6-yl]-2,3-dihydro-1H-1,3-benzodiazol-2-one], < 10 nM; under `N#Cc1cc(F)cc(-c2ccc3ncc(-c4cc(F)cc(F)c4)c(N4CCC(N)CC4)c3c2)c1O` [2-10, 3-[4-(4-aminopiperidin-1-yl)-3-(3,5-difluorophenyl)quinolin-6-yl]-5-fluoro-2-hydroxybenzonitrile], < 10 nM.
Take `NC1CCN(c2c(-c3cc(Cl)cc(Cl)c3)cnc3ccccc23)CC1` [2-11, 1-[3-(3,5-dichlorophenyl)quinolin-4-yl]piperidin-4-amine]: the EC50 fell in the range of 10 to 100 nM.
Still for that read-out and setting: under `Cc1cc(F)cc(-c2cnc3ccc(-c4cccc(C#N)c4O)cc3c2N2CC(CN)C2)c1` [2-12, 3-{4-[3-(aminomethyl)azetidin-1-yl]-3-(3-fluoro-5-methylphenyl)quinolin-6-yl}-2-hydroxybenzonitrile] stands 10 to 100 nM.
